Laboratory results as given in patent US20030162762A1, “Novel cephalosporin compounds and process for preparing the same” (priority 2000, published 2003).
Values after ≈ are worked out from the molar mass of the structure shown.

Assays:
Assay in all cases: Minimum Inhibitory Concentration (MIC), agar dilution, standard strains
E. faecalis L239 = format: cell-based; details: Table 1, Mueller-Hinton agar, 37° C., 20 hours; for MIC: Enterococcus faecalis, L239, read-out: Minimum Inhibitory Concentration, E. faecalis L239
Procedure: (§1) The effectiveness of the compound according to the present invention was determined by obtaining Minimum Inhibitory Concentration (MIC) of the compounds prepared by the above examples (Compounds I-1 to I-41) and vancomycin, which is the known compound having a potent activity against gram-positive strains, as the control drug against the standard strains. Specifically, Minimum Inhibitory Concentration was obtained by diluting the test compound according to a double dilution method, dispersing them in Mueller-Hinton agar medium, inoculating each of the test strain having 10^7 cfu (colony forming unit) per ml in an amount of 2 μl to the medium and then incubating them at 37° C. for 20 hours. From the result of Minimum Inhibitory Concentration test, it can be seen that the compound according to the present invention has a good activity against major pathogenic microorganisms, which cause hospital infection, including MRSA strains.

S. epidermidis R005 = format: cell-based; details: Table 1, Mueller-Hinton agar, 37° C., 20 hours; for MIC: Staphylococcus epidermidis, R005, read-out: Minimum Inhibitory Concentration, S. epidermidis R005
Procedure: as §1

[1] = system: Staphylococcus aureus giorgio; format: cell-based; details: Table 1, Mueller-Hinton agar, 37° C., 20 hours; for MIC: Staphylococcus aureus, read-out: Minimum Inhibitory Concentration, Staphylococcus aureus giorgio
Procedure: as §1

S. aureus 241 = format: cell-based, Staphylococcus aureus; details: Table 1, Mueller-Hinton agar, 37° C., 20 hours; for MIC: Staphylococcus aureus, 241, read-out: Minimum Inhibitory Concentration, S. aureus 241
Procedure: as §1

S. aureus 77 = format: cell-based, Staphylococcus aureus; details: Table 1, Mueller-Hinton agar, 37° C., 20 hours; for MIC: Staphylococcus aureus, 77, read-out: Minimum Inhibitory Concentration, S. aureus 77
Procedure: as §1

Row | Compound | Minimum Inhibitory Concentration, E. faecalis L239 (E. faecalis L239) | Minimum Inhibitory Concentration, S. epidermidis R005 (S. epidermidis R005) | Minimum Inhibitory Concentration, Staphylococcus aureus giorgio [1] | Minimum Inhibitory Concentration, S. aureus 241 (S. aureus 241) | Minimum Inhibitory Concentration, S. aureus 77 (S. aureus 77) | MIC (E. faecalis L239) | MIC (S. epidermidis R005) | MIC [1] | MIC (S. aureus 241) | MIC (S. aureus 77)
1 | CNCc1c(N)nc(SC/C=C/C2=C(C(=O)O)N3C(=O)[C@@H](NC(=O)CSc4cc(Cl)ccc4Cl)[C@H]3SC2)[n+](C)c1N [Compound I-23, (6R,7R)-4,6-diamino-2-({(E)-3-[2-carboxy-7-({2-[(2,5-dichlorophenyl)sulfanyl]acetyl}amino)-8-oxo-5-thia-1-azabicyclo[4.2.0]oct-2-en-3-yl]-2-propenyl}sulfanyl)-1-methyl-5-[(methylamino)methyl]pyrimidin-1-ium] | 1 µg/mL | 0.25 µg/mL | 0.016 µg/mL | 4 µg/mL | 0.25 µg/mL | – | – | – | – | –
2 | CNc1cc(N)nc(SC/C=C/C2=C(C(=O)O)N3C(=O)[C@@H](NC(=O)CSc4cc(Cl)ccc4Cl)[C@H]3SC2)n1 [Compound I-30, (6R,7R)-3-((E)-3-{[4-amino-6-(methylamino)-2-pyrimidinyl]sulfanyl}-1propenyl)-7-({2-[(2,5-dichlorophenyl)sulfanyl]acetyl}amino)-8-oxo-5-thia-1-azabicyclo [4.2.0]oct-2-ene-2-carboxylic acid] | – | – | – | – | – | 2 µg/mL (≈ 3.26 µM) | 0.5 µg/mL (≈ 0.815 µM) | 0.016 µg/mL (≈ 0.0261 µM) | 16 µg/mL (≈ 26.1 µM) | 0.5 µg/mL (≈ 0.815 µM)
3 | Nc1cc(SC/C=C/C2=C(C(=O)O)N3C(=O)[C@@H](NC(=O)CNc4cc(Cl)ccc4Cl)[C@H]3SC2)nc(N)n1 [Compound I-5] | 1 µg/mL | 0.5 µg/mL | 0.031 µg/mL | 16 µg/mL | 0.5 µg/mL | – | – | – | – | –
4 | 4-amino-1-{(E)-3-[(6R,7R)-2-carboxy-7-({2-[(2,5-dichlorophenyl)sulfanyl]acetyl}amino)-8-oxo-5-thia-1-azabicyclo[4.2.0]oct-2-en-3-yl]-2-propenyl}-2-methyl pyrimidin-1-ium [Compound I-39] | 0.5 µg/mL | 0.063 µg/mL | <0.008 µg/mL | 2 µg/mL | 0.25 µg/mL | – | – | – | – | –
5 | 4,6-diamino-1-{(E)-3-[(6R,7R)-2-carboxy-7-({2-[(2,5-dichlorophenyl)sulfanyl]acetyl}amino)-8-oxo-5-thia-1-azabicyclo[4.2.0]oct-2-en-3-yl]-2-propenyl}-5-methylpyrimidin-1-ium [Compound I-40] | 2 µg/mL | 0.25 µg/mL | 0.016 µg/mL | 8 µg/mL | 1 µg/mL | – | – | – | – | –
6 | Nc1cc[n+](N)c(SC/C=C/C2=C(C(=O)O)N3C(=O)[C@@H](NC(=O)CSc4cc(Cl)ccc4Cl)[C@H]3SC2)n1 [Compound I-4, 1,4-diamino-2-({(E)-3-[(6R,7R)-2-carboxy-7-({2-[(2,5-dichlorophenyl)sulfanyl]acetyl}amino)-8-oxo-5-thia-1-azabicyclo[4.2.0]oct-2-en-3-yl]-2-propenyl}sulfanyl) pyrimidin-1-ium] | 0.5 µg/mL | 0.13 µg/mL | <0.008 µg/mL | 1 µg/mL | 0.13 µg/mL | – | – | – | – | –
7 | Cc1nc(N)cc[n+]1C/C=C/C1=C(C(=O)O)N2C(=O)[C@@H](NC(=O)CSc3cc(Cl)ccc3Cl)[C@H]2SC1 [Compound I-33] | 0.5 µg/mL | 0.063 µg/mL | <0.008 µg/mL | 2 µg/mL | 0.26 µg/mL | – | – | – | – | –
8 | Nc1nc(SC/C=C/C2=C(C(=O)O)N3C(=O)[C@@H](NC(=O)CSc4cc(Cl)ccc4Cl)[C@H]3SC2)c2c([n+]1N)CCC2 [Compound I-21] | 0.25 µg/mL | 0.063 µg/mL | <0.008 µg/mL | 1 µg/mL | 0.063 µg/mL | – | – | – | – | –
9 | Nc1nc2cc(N)[n+](C/C=C/C3=C(C(=O)O)N4C(=O)[C@@H](NC(=O)CSc5cc(Cl)ccc5Cl)[C@H]4SC3)cn2n1 [Compound I-32] | 1 µg/mL | 0.25 µg/mL | 0.016 µg/mL | 4 µg/mL | 0.5 µg/mL | – | – | – | – | –
10 | Nc1cc(N)[n+](C/C=C/C2=C(C(=O)O)N3C(=O)[C@@H](NC(=O)CSc4cc(Cl)ccc4Cl)[C@H]3SC2)cn1 [Compound I-36] | 0.25 µg/mL | 0.063 µg/mL | <0.008 µg/mL | 1 µg/mL | 0.13 µg/mL | – | – | – | – | –
11 | Nc1ncnc(SC/C=C/C2=C(C(=O)O)N3C(=O)[C@@H](NC(=O)CSc4cc(Cl)ccc4Cl)[C@H]3SC2)c1N [Compound I-25, (6R,7R)-3-{(E)-3-[(5,6-diamino-4-pyrimidinyl)sulfanyl]-1-propenyl}-7-({2-[(2,5-dichlorophenyl)sulfanyl]acetyl}amino)-8-oxo-5-thia-1-azabicyclo[4.2.0]oct-2-ene-2-carboxylic acid] | – | – | – | – | – | 2 µg/mL (≈ 3.34 µM) | 1 µg/mL (≈ 1.67 µM) | 0.063 µg/mL (≈ 0.105 µM) | 16 µg/mL (≈ 26.7 µM) | 0.5 µg/mL (≈ 0.834 µM)
12 | CC[n+]1c(N)cc(N)nc1SC/C=C/C1=C(C(=O)O)N2C(=O)[C@@H](NC(=O)CSc3cc(Cl)ccc3Cl)[C@H]2SC1 [Compound I-29, (6R,7R)-4,6-diamino-2-({(E)-3-[2-carboxy-7-({2-[(2,5-dichlorophenyl)sulfanyl]acetyl}amino)-8-oxo-5-thia-1-azabicyclo[4.2.0]oct-2-en-3-yl]-2-propenyl}sulfanyl)-1-ethylpyrimidin-1-ium] | 0.13 µg/mL | 0.031 µg/mL | <0.008 µg/mL | 1 µg/mL | 0.063 µg/mL | – | – | – | – | –
